How the values were obtained:
[1] = tested on: GLXMAW (Soybean, Williams); experiment: Postemergence herbicidal evaluation; format: in vivo, Glycine max, (L.) Merr. cv Williams; conditions: postemergence
Procedure, shortened: (§1)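 Two-week-old seedlings sprayed with compound in 50/50 acetone/water plus 0.5% TWEEN 20, at about 0.0156 to 0.500 kg/ha, nozzle at 40 psi. Kept in greenhouse; rated visually 4-5 weeks after treatment on a 0-9 scale versus control, repeat tests averaged.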

CYPIR (Rice Flatsedge) = experiment: Preemergence weed control under flooded paddy conditions; format: in vivo, Cyperus iria; conditions: rated 3-4 weeks after treatment
Procedure, shortened: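 First, seeds or propagules go into the top 0.5 cm of silt loam; next, water is held 1.5 to 3 cm over the soil; then compound (50/50 acetone/water) is pipetted into it at about 0.0313 to 0.500 kg/ha; finally plants are rated visually 0-9 after three to four weeks.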

[2] = tested on: CHEAL (Lambsquarters, Common); experiment: Postemergence herbicidal evaluation; format: in vivo, Chenopodium album; conditions: postemergence
Procedure, shortened: as §1

AMBEL (Ragweed, Common) = experiment: Preemergence herbicidal evaluation; format: in vivo, Ambrosia artemisifolia; conditions: preemergence, rated 4-5 weeks after treatment, 0-9 scale
Procedure, shortened: (§2)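 Steps: mix seeds into potting soil; plant atop ~1 inch soil; spray compound in aqueous acetone (~0.0156-0.500 kg/ha equivalent); maintain in greenhouse with watering; rate visually 0-9 versus control at 4-5 weeks.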

SETVI (Foxtail, Green) [3] = experiment: Postemergence herbicidal evaluation; format: in vivo, Setaria viridis; conditions: postemergence
Procedure, shortened: as §1

[4] = tested on: ECHORC (Watergrass (Calif.)); experiment: Postemergence weed control under flooded paddy conditions; format: in vivo, Echinochloa oryzoides; conditions: postemergence weeds, rated 3 to 4 weeks after treatment
Procedure, shortened: (§3)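 Injury ratings (0–9 scale covering stand, vigor, malformation, size, chlorosis and overall appearance versus control) were made three to four weeks after treatment. Test material, about 0.0313 to 0.500 kg/ha a.i. in 50/50 v/v aqueous/acetone, was added to flood water 1.5 to 3 cm deep over 3 to 5 cm weeds and 1.5 to 2.5 leaf rice.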

GALAP (Galium) = experiment: Preemergence herbicidal evaluation; format: in vivo, Galium aparine; conditions: preemergence, rated 4-5 weeks after treatment, 0-9 scale
Procedure, shortened: as §2

ZEAMX (Corn, Field) = experiment: Postemergence herbicidal evaluation; format: in vivo, Zea mays; conditions: postemergence
Procedure, shortened: as §1

[5] = tested on: TRZAWR (Wheat, Winter, cv Riband); experiment: Postemergence herbicidal evaluation; format: in vivo, Triticum aestivum; conditions: postemergence
Procedure, shortened: as §1

ORYSAT (Rice, Tebonnet) = experiment: Postemergence herbicidal evaluation; format: in vivo, Oryza sativa, (L.) Tebonnet; conditions: postemergence
Procedure, shortened: as §1

SETVI (Foxtail, Green) [6] = experiment: Preemergence herbicidal evaluation; format: in vivo, Setaria viridis; conditions: preemergence, rated 4-5 weeks after treatment, 0-9 scale
Procedure, shortened: as §2

CYPSE (Flatsedge) = experiment: Postemergence weed control under flooded paddy conditions; format: in vivo, Cyperus serotinus; conditions: postemergence weeds, rated 3 to 4 weeks after treatment
Procedure, shortened: as §3

ABUTH (Velvetleaf) = experiment: Postemergence herbicidal evaluation; format: in vivo, Abutilon theophrasti; conditions: postemergence
Procedure, shortened: as §1

Q: Which GLXMAW herbicidal rating ([1]; rate 0.0156 kg/ha) does the source give for `CN1C(=O)C(CC(=O)NS(C)(=O)=O)SC1=Nc1cc(-n2c(=O)cc(C(F)(F)F)n(C)c2=O)c(F)cc1Cl` (stereo not shown) [Compound 97, 2-{{2-Chloro-5-[3,6-dihydro-3-methyl-2,6-dioxo-4-(trifluoromethyl)-1(2H)-pyrimidinyl]-4-fluorophenyl}imino}-3-methyl-N-(methylsulfonyl)-4-oxo-5-thiazolidineacetamide] here?
A: 4.5

Q: And the GLXMAW herbicidal rating ([1]; rate 0.0313 kg/ha)?
A: 4.0

Q: And the GLXMAW herbicidal rating ([1]; rate 0.0625 kg/ha)?
A: 5.5

Q: And the GLXMAW herbicidal rating ([1]; rate 0.1250 kg/ha)?
A: 6.5

Q: What about the “CYPIR herbicidal effect rating” value (CYPIR (Rice Flatsedge); 0.0313 kg/ha) of the same compound?
A: 0.0

Q: And the “CYPIR herbicidal effect rating” value (CYPIR (Rice Flatsedge); 0.0625 kg/ha)?
A: 0.0

Q: And the “CYPIR herbicidal effect rating” value (CYPIR (Rice Flatsedge); 0.1250 kg/ha)?
A: 3.0

Q: What about the “CYPIR herbicidal effect rating” value (CYPIR (Rice Flatsedge); 0.2500 kg/ha) of the same compound?
A: 4.0

Q: What about the CHEAL herbicidal rating ([2]; rate 0.0156 kg/ha) of the same compound?
A: 0.0

Q: And the CHEAL herbicidal rating ([2]; rate 0.0313 kg/ha)?
A: 1.0

Q: What about the CHEAL herbicidal rating ([2]; rate 0.0625 kg/ha) of the same compound?
A: 4.0

Q: What about the CHEAL herbicidal rating ([2]; rate 0.1250 kg/ha) of the same compound?
A: 7.0

Q: What about the AMBEL rating (AMBEL (Ragweed, Common); 0.1250 kg/ha) of the same compound?
A: 0.0

Q: What about the AMBEL rating (AMBEL (Ragweed, Common); 0.2500 kg/ha) of the same compound?
A: 4.0

Q: And the AMBEL rating (AMBEL (Ragweed, Common); 0.5000 kg/ha)?
A: 4.0

Q: What about the SETVI herbicidal rating (SETVI (Foxtail, Green) [3]; rate 0.0156 kg/ha) of the same compound?
A: 1.0

Q: What about the SETVI herbicidal rating (SETVI (Foxtail, Green) [3]; rate 0.0313 kg/ha) of the same compound?
A: 6.0

Q: What about the SETVI herbicidal rating (SETVI (Foxtail, Green) [3]; rate 0.0625 kg/ha) of the same compound?
A: 9.0

Q: What about the SETVI herbicidal rating (SETVI (Foxtail, Green) [3]; rate 0.1250 kg/ha) of the same compound?
A: 9.0

Q: And the “Herbicidal rating ECHORC” value ([4]; Rate 0.0313 kg/ha)?
A: 0.0

Q: And the “Herbicidal rating ECHORC” value ([4]; Rate 0.0625 kg/ha)?
A: 0.0

Q: What about the “Herbicidal rating ECHORC” value ([4]; Rate 0.1250 kg/ha) of the same compound?
A: 2.0

Q: And the “Herbicidal rating ECHORC” value ([4]; Rate 0.2500 kg/ha)?
A: 3.0

Q: And the GALAP rating (GALAP (Galium); 0.1250 kg/ha)?
A: 1.0

Q: And the GALAP rating (GALAP (Galium); 0.2500 kg/ha)?
A: 0.0

Q: And the GALAP rating (GALAP (Galium); 0.5000 kg/ha)?
A: 5.0

Q: And the ZEAMX herbicidal rating (ZEAMX (Corn, Field); rate 0.0156 kg/ha)?
A: 3.5

Q: What about the ZEAMX herbicidal rating (ZEAMX (Corn, Field); rate 0.0313 kg/ha) of the same compound?
A: 4.0

Q: And the ZEAMX herbicidal rating (ZEAMX (Corn, Field); rate 0.0625 kg/ha)?
A: 4.0

Q: And the ZEAMX herbicidal rating (ZEAMX (Corn, Field); rate 0.1250 kg/ha)?
A: 5.0

Q: What about the TRZAWR herbicidal rating ([5]; rate 0.0156 kg/ha) of the same compound?
A: 1.0

Q: And the TRZAWR herbicidal rating ([5]; rate 0.0313 kg/ha)?
A: 1.5

Q: And the TRZAWR herbicidal rating ([5]; rate 0.0625 kg/ha)?
A: 2.5

Q: And the TRZAWR herbicidal rating ([5]; rate 0.1250 kg/ha)?
A: 4.0

Q: What about the ORYSAT herbicidal rating (ORYSAT (Rice, Tebonnet); rate 0.0156 kg/ha) of the same compound?
A: 0.5

Q: What about the ORYSAT herbicidal rating (ORYSAT (Rice, Tebonnet); rate 0.0313 kg/ha) of the same compound?
A: 0.5

Q: And the ORYSAT herbicidal rating (ORYSAT (Rice, Tebonnet); rate 0.0625 kg/ha)?
A: 2.5

Q: What about the ORYSAT herbicidal rating (ORYSAT (Rice, Tebonnet); rate 0.1250 kg/ha) of the same compound?
A: 3.0

Q: What about the SETVI rating (SETVI (Foxtail, Green) [6]; 0.1250 kg/ha) of the same compound?
A: 0.0

Q: What about the SETVI rating (SETVI (Foxtail, Green) [6]; 0.2500 kg/ha) of the same compound?
A: 1.0

Q: And the SETVI rating (SETVI (Foxtail, Green) [6]; 0.5000 kg/ha)?
A: 7.0

Q: What about the “Herbicidal rating CYPSE” value (CYPSE (Flatsedge); Rate 0.0313 kg/ha) of the same compound?
A: 0.0

Q: And the “Herbicidal rating CYPSE” value (CYPSE (Flatsedge); Rate 0.0625 kg/ha)?
A: 0.0

Q: What about the “Herbicidal rating CYPSE” value (CYPSE (Flatsedge); Rate 0.1250 kg/ha) of the same compound?
A: 0.0

Q: And the “Herbicidal rating CYPSE” value (CYPSE (Flatsedge); Rate 0.2500 kg/ha)?
A: 3.0

Q: What about the ABUTH herbicidal rating (ABUTH (Velvetleaf); rate 0.0156 kg/ha) of the same compound?
A: 4.0

Q: What about the ABUTH herbicidal rating (ABUTH (Velvetleaf); rate 0.0313 kg/ha) of the same compound?
A: 4.0

Q: What about the ABUTH herbicidal rating (ABUTH (Velvetleaf); rate 0.0625 kg/ha) of the same compound?
A: 7.0

Q: And the ABUTH herbicidal rating (ABUTH (Velvetleaf); rate 0.1250 kg/ha)?
A: 9.0

Source: US20020137929A1, “1 - (3-heterocyclylphenyl) isothiourea, -isourea, -guanidine and -amidine herbicidal agents” (Intellectual Property Department, BASF Aktiengesellschaft, priority 1998, published 2002)
